Laboratory results as given in ChEMBL document CHEMBL5724914, “Linking interpersonal differences in gut microbiota composition and drug biotransformation activity” (2024).

Key:
[1] = (§1) The drug is tested on Z-018 corresponding to pig gut metagenome with ENA study accession number: PRJEB37062 and ENA sample accession number: ERS12561817 for biotransformation under anaerobic condition. The drug concentrations were measured over 9 timepoints collected between 0 and 24 hours of incubation by liquid-chromatography-coupled mass spectrometry (LC–MS); details: 2 µM
[2] = human gut metagenome, 24 h, 2 µM
[3] = as §1, with “Z-008” for “Z-018”, “to” for “to pig gut”, “ERS12561808” for “ERS12561817”; details: 2 µM
[4] = as §1, with “Z-001” for “Z-018”, “mouse” for “pig”, “ERS12561801” for “ERS12561817”; details: 2 µM
[5] = as §1, with “WLS-073” for “Z-018”, “human” for “pig”, “ERS12561749” for “ERS12561817”; details: 2 µM
[6] = as §1, with “Z-007” for “Z-018”, “rat” for “pig”, “ERS12561807” for “ERS12561817”; details: 2 µM
[7] = as §1, with “Z-009” for “Z-018”, “ERS12561809” for “ERS12561817”; details: 2 µM
[8] = as §1, with “WLS-098” for “Z-018”, “human” for “pig”, “ERS12561754” for “ERS12561817”; details: 2 µM
[9] = as §1, with “WLS-082” for “Z-018”, “human” for “pig”, “ERS12561751” for “ERS12561817”; details: 2 µM
[10] = as §1, with “WLS-370” for “Z-018”, “human” for “pig”, “ERS12561793” for “ERS12561817”; details: 2 µM
[11] = as §1, with “WLS-069” for “Z-018”, “human” for “pig”, “ERS12561748” for “ERS12561817”; details: 2 µM
[12] = human gut metagenome, 24 h, 2 µM; remark: listed apart in the source
[13] = human gut metagenome, 24 h, 2 µM; remark: listed apart in the source
[14] = as §1, with “Z-027” for “Z-018”, “to” for “to pig gut”, “ERS12561826” for “ERS12561817”; details: 2 µM
[15] = as §1, with “Z-029” for “Z-018”, “rat” for “pig”, “ERS12561828” for “ERS12561817”; details: 2 µM
[16] = as §1, with “Z-014” for “Z-018”, “rat” for “pig”, “ERS12561814” for “ERS12561817”; details: 2 µM
[17] = human gut metagenome, 24 h, 2 µM; remark: listed apart in the source
[18] = human gut metagenome, 24 h, 2 µM; remark: listed apart in the source
[19] = as §1, with “Z-030” for “Z-018”, “mouse” for “pig”, “ERS12561829” for “ERS12561817”; details: 2 µM
[20] = as §1, with “Z-003” for “Z-018”, “ERS12561803” for “ERS12561817”; details: 2 µM

Measured: Bacterial Biotransformation
Note: call rule not given here.

CCOc1ccc2nc(S(N)(=O)=O)sc2c1 [ETHOXZOLAMIDE]
Compound metabolized: [8]
Compound NOT metabolized: [1] | [2] | [3] | [4] | [5] | [6] | [7] | [9] | [10] | [11] | [12] | [13] | [14] | [15] | [16] | [17] | [18] | [19] | [20]

CC(N)C12CC3CC(CC(C3)C1)C2 (stereo not given) [RIMANTADINE]
Compound NOT metabolized: [1] | [2] | [3] | [4] | [5] | [6] | [7] | [8] | [9] | [10] | [11] | [12] | [13] | [14] | [15] | [16] | [17] | [18] | [19] | [20]

CCOC(=O)C1=C[C@]2(CC)CCCN3CCc4c(n1c1ccccc41)[C@@H]32 [VINPOCETINE]
Compound NOT metabolized: [3] | [4] | [6] | [13] | [14] | [15] | [16] | [19]
Compound metabolized: [1] | [2] | [5] | [7] | [8] | [9] | [10] | [11] | [12] | [17] | [18] | [20]

O=C1C(CC[S+]([O-])c2ccccc2)C(=O)N(c2ccccc2)N1c1ccccc1 (stereo not given) [SULFINPYRAZONE]
Compound NOT metabolized: [4] | [6] | [14] | [15] | [16] | [19]
Compound metabolized: [1] | [2] | [3] | [5] | [7] | [8] | [9] | [10] | [11] | [12] | [13] | [17] | [18] | [20]

Nc1nnc(-c2cccc(Cl)c2Cl)c(N)n1 [LAMOTRIGINE]
Compound metabolized: [2] | [8] | [17]
Compound NOT metabolized: [1] | [3] | [4] | [5] | [6] | [7] | [9] | [10] | [11] | [12] | [13] | [14] | [15] | [16] | [18] | [19] | [20]

CC(=O)Nc1ccc(OC(C)=O)cc1 [DIACETAMATE]
Compound metabolized: [1] | [2] | [3] | [4] | [5] | [6] | [7] | [8] | [9] | [10] | [11] | [12] | [13] | [14] | [15] | [16] | [17] | [18] | [19] | [20]

CN(C)C(=O)Oc1cccc([N+](C)(C)C)c1.[Br-] [NEOSTIGMINE BROMIDE]
Compound metabolized: [4] | [15] | [20]
Compound NOT metabolized: [1] | [2] | [3] | [5] | [6] | [7] | [8] | [9] | [10] | [11] | [12] | [13] | [14] | [16] | [17] | [18] | [19]
